Tests used:
Type in all cases: cell-based, human
[1] = tested on: HeLa-control, HeLa-IG20 and HeLa-DENN-SV cells; test: Cell division after etoposide treatment, CFDA staining; conditions: 5 μM etoposide for 5 days
Procedure: (§1) FIG. 9: Effects of IG20 and DENN-SV on survival and proliferation of cells treated with etoposide. (A) Cell survival after etoposide treatment. Cells were treated with the indicated doses of etoposide and allowed to grow in culture for 2 weeks and stained with crystal violet. (B) Enumeration of colonies after etoposide treatment. Three different experiments using the indicated doses of etoposide were used to determine the effects of the drug on HeLa-control, HeLa-IG20 and HeLa-DENN-SV cells. P values were <0.05 for all test groups. (C) Etoposide-Induced apoptosis. Cells treated with the indicated doses of etoposide were stained with Hoechst as described in Materials and Methods and evaluated for chromatin condensation under a microscope. P values were <0.05 for all test groups. (D) Cell Division after Etoposide Treatment. Cells were stained with CFDA and then subjected to 5 μM etoposide treatment for 5 days. Cells were then harvested and evaluated by FACS for CFDA staining intensity. Histograms show relative levels of CFDA dye retention. The peak on the left within each histogram represents cells that have undergone cell division, and therefore, partially lost CFDA staining, whereas the peak on the right represents undivided cells that retained maximum CFDA staining.
1×10^5 Cells/100 mm^2 plate were stained with 2 μM CFDA (Molecular Probes, Eugene, Oreg.) in situ in 5 ml PBS/100 mm^2 for 10 minutes at 37° C. Cells were then washed 3 times and replenished with new media Cells were harvested 5 days later and analyzed by FACS.

[2] = tested on: HeLa-control, HeLa-IG20 and HeLa-DENN-SV cells; test: Colony formation after etoposide treatment (crystal violet)
Procedure: as §1
(§2) Cells were plated (10^5 cells/well) the day before treatment into 6 well plates. Cells were treated with etoposide for 24 hours or vinblastine for 1 hour at indicated concentrations. After treatment, cells were washed 3 times with PBS and then replenished with fresh media and incubated at 37° C. Two weeks later, cells were fixed in ice-cold methanol and stained with crystal violet for visualization.

[3] = tested on: HeLa-control, HeLa-IG20 and HeLa-DENN-SV cells; test: Etoposide-induced apoptosis, Hoechst chromatin condensation
Procedure: as §1
Cells were stained in situ with 1 μg/ml of Hoechst 33342 (Sigma, St. Louis, Mo.) in DMEM for 10 minutes at 37° C. […]

[4] = tested on: HeLa-control, HeLa-IG20 and HeLa-DENN-SV cells; test: Vinblastine-induced apoptosis, chromatin condensation by Hoechst staining; conditions: 0.05 μM vinblastine, Hoechst 24 hours after treatment
Procedure: (§3) FIG. 8: Effect of IG20 and DENN-SV on Cell Survival and Apoptosis of TransfectedCells after Vinblastine Treatment. (A) Cell survival after Vinblastine treatment. […] (B) Vinblastine-Induced apoptosis. Cells treated with 0.05 μM vinblastine were stained with Hoechst 24 hours after the treatment in order to determine the percentage of cells with condensed chromatin. P values were <0.05 for all test groups.
as §2
Cells were stained in situ with 1 μg/ml of Hoechst 33342 (Sigma, St. Louis, Mo.) in DMEM for 10 minutes at 37° C. Chromatin condensation was then visualized in situ using a Diaphot 200 inverted microscope with an epifluorescence attachment (Nikon, Inc., Melville, N.Y.). 10 different fields were randomly chosen to determine the average number of cells with condensed chromatin (apoptotic) as compared to live cells.

[5] = tested on: HeLa-control, HeLa-IG20 and HeLa-DENN-SV cells; test: Cell survival (crystal violet colonies) after vinblastine treatment; conditions: dose of 0.05 ∝M, two weeks
Procedure: as §3, §2

Row | SMILES | Cell division as indicated by CFDA staining ([1]; DENN-SV cells) | Cell division as indicated by CFDA staining ([1]; HeLa-IG20 cells) | Cell division as indicated by CFDA staining ([1]; control cells) | Colonies formed after etoposide treatment ([2]; HeLa-DENN-SV cells, 5 μM etoposide) | Colonies formed after etoposide treatment ([2]; HeLa-DENN-SV cells, 20 μM etoposide) | Growth after etoposide treatment ([2]; HeLa-DENN-SV cells, 30 μM etoposide) | Colonies formed after etoposide treatment ([2]; HeLa-IG20 cells, 5 μM etoposide, on average) | Colonies formed after etoposide treatment ([2]; HeLa-IG20 cells, 20 μM etoposide) | Colonies formed after etoposide treatment ([2]; HeLa-control cells, 5 μM etoposide) | Etoposide-induced apoptosis ([3]; HeLa-DENN-SV cells) | Etoposide-induced apoptosis ([3]; HeLa-IG20 cells) | Vinblastine-induced apoptosis as measured by chromatin condensation ([4]; HeLa-DENN-SV cells) | Vinblastine-induced apoptosis as measured by chromatin condensation ([4]; HeLa-IG20 cells) | Vinblastine-induced apoptosis as measured by chromatin condensation ([4]; HeLa-controls) | Cell survival (colonies) after vinblastine treatment ([5]; HeLa-DENN-SV cells) | Cell survival (colonies) after vinblastine treatment ([5]; HeLa-IG20 cells) | Cell survival (colonies) after vinblastine treatment ([5]; HeLa-control cells)
1 | COc1cc([C@@H]2c3cc4c(cc3[C@@H](O[C@@H]3O[C@@H]5CO[C@@H](C)O[C@H]5[C@H](O)[C@H]3O)[C@H]3COC(=O)[C@H]23)OCO4)cc(OC)c1O [etoposide] | 36% | 9% | 24% | 125 colonies | approximately 40 colonies | able to grow | 8 colonies | very few or no colonies | 39 colonies | noticeable resistance to etoposide-induced apoptosis | did not show a marked increase in susceptibility to apoptosis |  |  |  |  |  | 
2 | CC[C@]1(O)C[C@@H]2CN(CCc3c([nH]c4ccccc34)[C@@](C(=O)OC)(c3cc4c(cc3OC)N(C)[C@H]3[C@@](O)(C(=O)OC)[C@H](OC(C)=O)[C@]5(CC)C=CCN6CC[C@]43[C@@H]65)C2)C1 [vinblastine] |  |  |  |  |  |  |  |  |  |  |  | 21% | 70% | 46% | not significantly affected | only a few HeLa-IG20 colonies detectable | intermediary response
